Results published in PMC12088962, “Design, synthesis, and biological investigation of new thiazole-based derivatives as multi-targeted inhibitors endowed with antiproliferative, antioxidant, and antibacterial properties” (Frontiers in Chemistry, 2025).
≈ marks a conversion by molar mass, not a printed value. Like-named read-outs stand apart in the source and are kept apart here.

What was measured:
[1] = target: S. aureus topoisomerase IV; conditions: read-out: IC50 for S. aureus topoisomerase IV (internal standard value); value stated in the supplementary method, no reference given; cited from earlier work
E. coli DNA gyrase = E. coli DNA gyrase (Escherichia coli, UniProt P0AES6); assay: DNA gyrase supercoiling assay; type: biochemical
Description: 4.2.3. Determination of Inhibitory Activities on E. coli DNA Gyrase.
All the final compounds were tested for E. coli DNA gyrase inhibitory activity in a supercoiling assay. Activities were determined on streptavidin -coated 96-well microtiter plates from Thermo scientific Pierce. First, the plates were rehydrated with buffer (20 mM Tris -HCl with pH 7.6, 0.01% […]
immobilized. After washing off the unbound oligonucleotide, the enzyme test was performed. The reaction volume of 30 μL in buffer (35 mM Tris-HCl with pH 7.5, 4 mM MgCl 2, 24 mM KCl, 2 […]
1.5 U of DNA gyrase from E. coli or S. aureus, 0.75 μg of relaxed pNO1 plasmid, and 3 μL solution of the inhibitor in 1 0% DMSO and 0.008% Tween 20. Reaction solutions were incubated at 37 °C […]
for 30 min. After that, the TF buffer (50 mM NaOAc with pH 5.0, 50 mM NaCl and 50 mM MgCl2) was added to terminate the enzymatic reaction. After additional incubation for 30 min at rt, during which biotin-oligonucleotide-plasmid triplex was formed, the unbound plasmid was washed off using TF buffer and SybrGOLD in T10 buffer (10 mM Tris HCl wit h pH 8.0 and 1 mM EDTA) was added. The fluorescence was measured with a microplate reader (BioTek Synergy H4, excitation: 485 nm, emission: 535 nm). […]
tested compounds. GraphPad Prism software was used to calculate the IC50 values. The result is given as the average value of three independent measurements. […]

HT-29 cells = assay: Antiproliferative MTT assay
Description: (§8) Dose-response assays determined the IC50 values for the novel compounds. We derived the reported data from a minimum of two separate experiments, each consisting of three repetitions per concentration.
Assay for antiproliferative effect

in vitro = conditions: human, MCF-10A mammary gland epithelial cells (normal cell line)
E. coli = assay: MIC by twofold serial dilution; type: cell-based, Escherichia coli (ATCC 11775); conditions: Escherichia coli; Gram-negative; read-out: Minimum inhibitory concentration (MIC), E. coli
Description: (§1) The antibacterial efficacy of compounds 11b, 11e, and 12b was evaluated against Gram-positive bacteria (S. aureus and B. subtilis) and Gram-negative bacteria (E. coli and P. aeruginosa). Table 5 presents the MICs (nM) of these compounds against the evaluated bacteria, utilizing ciprofloxacin as the reference drug, determined through a twofold serial dilution approach on a 96-well microtiter plate ([Frejat F. O. et al., 2022]).
as §1, with “The” for “Table 5 presents the”, “the tested” for “these”, “bacteria were” for “bacteria, utilizing ciprofloxacin as the reference drug,”, “2022]). See Appendix A for more details.” for “2022]).”
(§2) 4.2. Antimicrobial activity
(§3) 4.2.1. Organisms and culture conditions […]
(§4) 4.2.2. Minimum inhibitory concentration assay
(§5) In 96-well microtiter plates and […] of fresh bacterial culture of a single McFarland unit overnight, a double serial dilution of each compound […] in sterile standard saline were prepared to every single source well. Ciprofloxacin antibiotic (5 mg / mL-1) and normal saline were included as standard reference in each assay. The plates were incubated at 37 0C overnight.
(§6) As an indicator of bacterial growth, […] of p -iodonitrotetrazolium violet (INT) was added to each well and incubated at 37 0C for 30 min. MIC values are recorded as the lowest concentration […]
(§7) tetrazolidium salt acts as an electron accepter and is reduced to a red colored formazan product by biological activity organisms. Where bacterial growth was inhibited, the solution in the well remained clear after incubation with INT. […]

S. aureus = assay: MIC by twofold serial dilution; type: cell-based, Staphylococcus aureus (ATCC 12600); conditions: Staphylococcus aureus; Gram-positive; read-out: Minimum inhibitory concentration (MIC), S. aureus
Description: as §1
as §1, with “The” for “Table 5 presents the”, “the tested” for “these”, “bacteria were” for “bacteria, utilizing ciprofloxacin as the reference drug,”, “2022]). See Appendix A for more details.” for “2022]).”
as §2, §3, §4, §5, §6, §7

B. subtilis = assay: MIC by twofold serial dilution; type: cell-based, Bacillus subtilis (ATCC 6051)
Description: as §1
as §1, with “The” for “Table 5 presents the”, “the tested” for “these”, “bacteria were” for “bacteria, utilizing ciprofloxacin as the reference drug,”, “2022]). See Appendix A for more details.” for “2022]).”
as §2, §3, §4, §5, §6, §7

VEGFR-2 = VEGFR-2 (Homo sapiens, UniProt P35968); assay: VEGFR-2 inhibitory assay
VEGFR-2, sequence (P35968 20-1356): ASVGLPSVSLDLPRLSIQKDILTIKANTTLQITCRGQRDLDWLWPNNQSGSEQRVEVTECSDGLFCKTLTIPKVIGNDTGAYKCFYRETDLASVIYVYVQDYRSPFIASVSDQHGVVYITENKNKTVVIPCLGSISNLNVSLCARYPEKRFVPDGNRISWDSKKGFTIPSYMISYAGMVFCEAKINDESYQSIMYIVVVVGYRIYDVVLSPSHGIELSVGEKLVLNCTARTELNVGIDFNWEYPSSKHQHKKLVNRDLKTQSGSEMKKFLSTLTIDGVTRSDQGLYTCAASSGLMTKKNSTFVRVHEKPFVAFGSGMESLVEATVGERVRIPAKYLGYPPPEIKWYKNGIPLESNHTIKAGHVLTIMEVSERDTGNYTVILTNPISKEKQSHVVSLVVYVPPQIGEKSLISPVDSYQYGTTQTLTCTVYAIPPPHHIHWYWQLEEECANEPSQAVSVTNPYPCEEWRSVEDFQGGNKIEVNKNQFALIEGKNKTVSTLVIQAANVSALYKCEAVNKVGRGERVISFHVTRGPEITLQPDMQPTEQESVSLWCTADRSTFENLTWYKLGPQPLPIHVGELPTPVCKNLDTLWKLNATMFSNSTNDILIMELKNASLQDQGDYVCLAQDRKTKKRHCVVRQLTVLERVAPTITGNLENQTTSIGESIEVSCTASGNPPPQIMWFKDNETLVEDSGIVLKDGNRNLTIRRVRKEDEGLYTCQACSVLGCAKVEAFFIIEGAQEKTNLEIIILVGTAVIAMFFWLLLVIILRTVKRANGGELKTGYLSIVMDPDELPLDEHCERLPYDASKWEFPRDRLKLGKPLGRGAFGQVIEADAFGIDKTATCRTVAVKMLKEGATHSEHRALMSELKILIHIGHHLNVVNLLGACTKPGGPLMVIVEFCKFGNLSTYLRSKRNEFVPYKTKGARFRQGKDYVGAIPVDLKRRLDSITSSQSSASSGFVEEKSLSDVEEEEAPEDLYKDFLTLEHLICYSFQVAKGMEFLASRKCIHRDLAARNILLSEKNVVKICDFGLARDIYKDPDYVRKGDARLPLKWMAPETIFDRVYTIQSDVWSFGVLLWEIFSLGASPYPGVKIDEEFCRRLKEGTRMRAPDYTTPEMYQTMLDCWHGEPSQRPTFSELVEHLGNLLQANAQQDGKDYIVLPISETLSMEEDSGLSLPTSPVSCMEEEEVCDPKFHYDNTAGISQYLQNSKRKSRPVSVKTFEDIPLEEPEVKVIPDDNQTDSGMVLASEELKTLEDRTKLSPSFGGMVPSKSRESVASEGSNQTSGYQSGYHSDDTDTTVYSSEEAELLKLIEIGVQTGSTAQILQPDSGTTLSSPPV
Description: The outcomes are presented as IC50 values.
(§9) was added to each well followed by incubation of 1h and then washing of the plates using buffer.
(§10) The enhancement solution was added to each well and the signal was recorded at excitation and
(§11) The autophosphorylation percentage inhibition by compounds was calculated using the following equation:
Prepare all the solutions using autoclaved, deionized water and analytical grade reagents.
and store all the reagents at room temperature (unless indicated otherwise).
solution, add 5 mL ultra-pure water; 1×Kinase Assay Buffer: add 25 mL HEPES solution (1 M),
water, adjust pH to 7.5 and constant volume to 500 mL using ultrapure water; 4×Stop solution (40
mM): Mix 0.8 mL of the foregoing EDTA solution, 1 mL 10×Detection Buffer and 8.2 mL ultra-
pure water; 1×Detection Buffer: Mix 1 mL 10×Detection Buffer with 9 mL water; 4×VEGFR
μM) was added to 624 μL 1×Kinase Assay Buffer and mixed; 4×ULight™-labeled JAK1
(substrate) (200 nM, 25 times diluted): 24 μL ULight™-labeled JAK1 (mother liquor
concentration 5 μM) was added to 576 μL 1×Kinase Assay Buffer and mixed; 4×ATP Solution
(40 μM, 250 times diluted): add 3 μL ATP solution (10 mM) to 747 μL 1×Kinase Assay Buffer
2×substrate/ATP Mix: 560 μL foregoing 4×ULight™-labeled JAK1 and 560 μL 4×ATP solution
and mixed (prepared before use). The assays used an ULight-labeled peptide substrate and a
Europium-W1024-labeled antiphosphotyrosine antibody. The VEGFR-2 was purchased from
Carna Biosciences, Inc. (New York, USA). The 384-well plates were obtained from PerkinElmer.
5 μL 2×VEGFR-2 kinase solution (0.5 nM)
was added to 384-well plates homogeneous mixing and pre-reaction at room temperature for 30 min. Next, 2.5 μL 4×Ultra ULightTM-JAK-1(Tyr1023) Peptide (200 nM)/ATP (40 μM) was added to the corresponding wells of a 384-well plate. Negative control: 2.5 μL/well 4×substrate/ATP mixture and 7.5 μL 1×kinase assay buffer in 384-well plate well. Positive control:
μL/well 2×VEGFR-2 kinase solution was added to the 384-well plate, The final concentration of DMSO in the mixing system was 4%. After incubation at room temperature and dark for 60 min, 5 μL 4×stop solution was added to corresponding wells to react for 5 min and then 5 μL 4×detection mix was added to the corresponding wells of a 384-well plate. The mixture was centrifugally mixed and stayed for 60 min at room temperature for color development. The plate was read using a Envision plate reader. The inhibition rate (%) = (positive well reading-compound well reading)/(positive well reading-negative well reading)×100. The corresponding IC50 values were calculated using GraphPad Prism 5.0.

Panc-1 cells = assay: Antiproliferative MTT assay
Description: as §8
Assay for antiproliferative effect

EGFR = EGFR (Homo sapiens, UniProt P00533); assay: EGFR-TK inhibitory assay
EGFR, sequence (P00533 669-1210): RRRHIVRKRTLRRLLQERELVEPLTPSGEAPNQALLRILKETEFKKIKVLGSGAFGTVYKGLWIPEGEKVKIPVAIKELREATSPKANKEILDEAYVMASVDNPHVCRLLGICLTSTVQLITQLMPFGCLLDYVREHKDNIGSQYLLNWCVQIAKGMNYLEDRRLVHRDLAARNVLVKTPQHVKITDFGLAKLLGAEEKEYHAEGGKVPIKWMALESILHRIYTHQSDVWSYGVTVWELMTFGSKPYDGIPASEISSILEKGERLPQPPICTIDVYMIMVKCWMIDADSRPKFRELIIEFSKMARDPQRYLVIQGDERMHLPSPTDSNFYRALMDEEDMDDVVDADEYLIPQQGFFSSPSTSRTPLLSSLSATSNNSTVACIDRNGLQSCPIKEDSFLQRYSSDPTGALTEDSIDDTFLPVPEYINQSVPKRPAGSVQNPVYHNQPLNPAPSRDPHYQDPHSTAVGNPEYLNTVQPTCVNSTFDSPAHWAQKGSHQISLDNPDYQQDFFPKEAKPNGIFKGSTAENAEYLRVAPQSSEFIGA
Description: Baculoviral expression vectors including pBlueBacHis2B and pFASTBacHTc were used
5ʹ upstream to the EGFR sequence comprised a sequence that encoded (His)6. Sf-9 cells were infected for 72h for protein expression. The pellets of Sf-9 cells were solubilized in a buffer containing sodium vanadate (100 μM), aprotinin (10 μg/mL), triton (1%), HEPES buffer(50mM), ammonium molybdate (10 μM), benzamidine HCl (16 μg/mL), NaCl (10 mM),leupeptin (10 μg/mL) and pepstatin (10 μg/mL) at 0°C for 20 min at pH 7.4, followed by centrifugation for 20 min. To eliminate the nonspecifically bound material, a Ni-NTA super flow packed column was used to pass through and wash the crude extract supernatant first with 10mM and then with 100 mM imidazole. Histidine-linked proteins were first eluted with 250 and then with 500 mM imidazole subsequent to dialysis against NaCl (50 mM), HEPES (20 mM), glycerol (10%) and 1 μg/mL each of aprotinin, leupeptin and pepstatin for 120 min. The purification was performed either at 4 °C or on ice. To record autophosphorylation level, EGFR kinase assay was carried out on the basis of DELFIA/Time-Resolved Fluorometry. The compounds were first
dissolved in DMSO absolute, subsequent to dilution to appropriate concentration using HEPES
(25 mM) at pH 7.4. Each compound (10 μL) was incubated with recombinant enzyme (10 μL, 5
ng for EGFR, 1:80 dilution in 100 mM HEPES) for 10 min at 25 °C, subsequent to the addition of
5X buffer (10 μL, containing 2 mM MnCl2, 100 μM Na3VO4, 20 mM HEPES and 1 mM DTT)
and ATP-MgCl2 (20 μL, containing 0.1 mM ATP and 50 mM MgCl2) and incubation for 1h. The
negative and positive controls were included in each plate by the incubation of enzyme either with
or without ATP-MgCl2. The liquid was removed after incubation and the plates were washed
thrice using a wash buffer. The Europium-tagged antiphosphotyrosine antibody (75 μL, 400 ng)
as §9, §10, §11
calculated. The majority of signals detected by antiphosphotyrosine antibody were from EGFR because the enzyme preparation contained low impurities.

[2] = test system: four cancer cell lines (A-549, MCF-7, Panc-1, HT-29); assay: Antiproliferative MTT assay, average over four cancer cell lines; conditions: for GI50: read-out: Antiproliferative activity, Average (GI50)
Description: as §8
Assay for antiproliferative effect

A-549 cells = assay: Antiproliferative MTT assay
Description: as §8
Assay for antiproliferative effect

P. aeruginosa = assay: MIC by twofold serial dilution; type: cell-based, Pseudomonas aeuroginosa (ATCC 10145); conditions: Pseudomonas aeruginosa; Gram-negative; read-out: Minimum inhibitory concentration (MIC), P. aeruginosa
Description: as §1
as §1, with “The” for “Table 5 presents the”, “the tested” for “these”, “bacteria were” for “bacteria, utilizing ciprofloxacin as the reference drug,”, “2022]). See Appendix A for more details.” for “2022]).”
as §2, §3, §4, §5, §6, §7

MCF-7 cells = assay: Antiproliferative MTT assay
Description: as §8
Assay for antiproliferative effect

MCF-10A cells = conditions: 50 µM

CO[C@@H]1[C@@H](OC(N)=O)[C@@H](O)[C@H](Oc2ccc3c(O)c(NC(=O)c4ccc(O)c(CC=C(C)C)c4)c(=O)oc3c2C)OC1(C)C [Novobiocin]
IC50 [1]: 26700 nM

Cc1nc(SCC(=O)c2cc3cc(Br)ccc3oc2=O)sc1C(=O)/C=C/c1ccc(Cl)cc1 [Compound 11e, (E)-6-Bromo-3-(2-((5-(3-(4-chlorophenyl)acryloyl)-4-methylthiazol-2-yl)thio)acetyl)-2H-chromen-2-one]
IC50 (E. coli DNA gyrase): 190 ± 13 nM | IC50 (HT-29 cells; Homo sapiens, HT-29, read-out: Antiproliferative activity IC50 ± SEM, HT-29): 42 ± 2 nM | viability at 96 h, 50 µM (in vitro): 91% | MIC (E. coli): 0.048 ± 0.003 µM (≈ 0.0269 µg/mL) | MIC (S. aureus): 0.027 ± 0.001 µM (≈ 0.0151 µg/mL) | Fold less efficient than ciprofloxacin (MIC), B. subtilis (B. subtilis): 2.2 fold | MIC (B. subtilis; Bacillus subtilis, Gram-positive, read-out: Minimum inhibitory concentration (MIC), B. subtilis): 0.022 ± 0.001 µM (≈ 0.0123 µg/mL) | IC50 (VEGFR-2): 4900 ± 30 nM | IC50 (Panc-1 cells; Homo sapiens, PANC-1, read-out: Antiproliferative activity IC50 ± SEM, Panc-1): 40 ± 2 nM | IC50 (EGFR): 89 ± 4 nM | Fold less potent than compound 11f (GI50) [2]: 1.5 fold | GI50 ([2]; Homo sapiens): 41 nM | IC50 (A-549 cells; Homo sapiens, A549, read-out: Antiproliferative activity IC50 ± SEM, A-549): 37 ± 2 nM | MIC (P. aeruginosa): 0.053 ± 0.003 µM (≈ 0.0297 µg/mL) | IC50 (MCF-7 cells; Homo sapiens, MCF7, read-out: Antiproliferative activity IC50 ± SEM, MCF-7): 43 ± 2 nM

(E)-3-(2-((5-(3-(4-Methoxyphenyl)acryloyl)-4-methylthiazol-2-yl)thio) acetyl)-2H-chromen-2-one [Compound 11c]
RA (residual activity of the enzyme), E. Coli DNA gyrase (E. coli DNA gyrase; at 1 μM of compound): 68% | IC50 (HT-29 cells; read-out: Antiproliferative activity IC50 ± SEM, HT-29, colon cancer HT-29, MTT): 57 ± 4 nM | IC50 (Panc-1 cells; read-out: Antiproliferative activity IC50 ± SEM, Panc-1, pancreatic cancer Panc-1, MTT): 54 ± 4 nM | Cell viability % (MCF-10A cells): 90% | Fold less potent than compound 11f (GI50) [2]: twofold | GI50 ([2]; average IC50 over the four cancer cell lines): 55 nM | IC50 (A-549 cells; read-out: Antiproliferative activity IC50 ± SEM, A-549, lung cancer A-549, MTT): 52 ± 4 nM | IC50 (MCF-7 cells; read-out: Antiproliferative activity IC50 ± SEM, MCF-7, breast cancer MCF-7, MTT): 56 ± 4 nM
